# According to patent US20200323828A1, “METHODS OF TREATING BEHAVIOR ALTERATIONS” (Oryzon Genomics, S.A., priority 2017, published 2020):
# Key:
# Format in all cases: in vivo
# [1] = test system: isolated Sprague-Dawley male rats; assay: Resident-intruder (RI) test in the rat isolation rearing model (social withdrawal)
# From the text: In this model, rats are isolated after weaning on postnatal day 21 (PND21) and deprived of the normal environment that preconditions their social behavior. Isolation in this phase of the development of the rat may lead to behavior alterations, particularly a lack of interest for social interactions, which can be used as a model for human social withdrawal.
# (§1) Right after the weaning (post natal day 21-23), 48 Sprague-Dawley male rats were divided in two groups: Control (Non Isolated; n=12), maintained 3-4 animals per cage; Isolated (n=36), 1 animal per cage. Starting on postnatal day (PND) 61, adult isolated male rats were treated with vehicle, Compound 1 at 0.16 mg/kg/day or Compound 1 at 0.48 mg/kg/day (n=12/group) for 5 weeks. Control (non-isolated) animals were treated with vehicle. The administration route was drinking water and the vehicle 1.8% 2-hydroxypropyl-β-cyclodextrin. Drug concentration was adjusted weekly by body weight and water consumption. During the last week of treatment, all animals were tested in the RI (PND94) to evaluate social behavior and, on a different day, in the EPM test (PND87-88) to evaluate anxiety behavior.
# The resident-intruder (RI) test was performed following a similar protocol to that described for mice in Example 3 above, as follows: Briefly, the test subject (resident) was maintained in its home cage without bedding changes for one week. […] The session was video-recorded during 15 min, and social interaction (parameters measured: active and passive social interaction, avoidance and time without social interaction) and aggressive behavior of the test subject were analyzed by an experimenter blind to the treatment.
# Statistical analysis: Non Isolated and Isolated vehicle groups were compared by t-Test. Among the Isolated groups, different drug treatments were compared by oneway-ANOVA with Dunnet and SNK post-Hoc analysis.
# male SAMP8 mice [2] = assay: Open field (OF) test in male SAMP8 mice; settings: 0.32 or 0.96 mg/kg/day in drinking water
# Experimental: (§2) Animals (n=8/group) were treated from month 5 of age with vehicle, 0.32 or 0.96 mg/kg/day Compound 1, and by month 7 of treatment they were sequentially submitted to the OF and EPM test at one week intervals.
# (§3) Vehicle (1.8% 2-Hydroxypropyl-(3-cyclodextrin, Sigma-Aldrich, Spain) or KDM1A inhibitor (Compound 1) were administered in drinking water. SAMR1 mice treated with vehicle were included as a control (n=8). All drugs were administered via drinking water and diluted in vehicle. Drug concentration was calculated weekly in function of body weight and corrected in function of drinking water consumption.
# Open Field (OF): A 50×50-cm white plastic arena with 25-cm-high walls was used to analyze spontaneous exploratory behavior. The floor of the apparatus was divided into 25 equal squares. The movements of each animal were video recorded during 5 min. Locomotor activity was analyzed by video-tracking over the captured images using SMART® (v3.0, PanLab, SLU, Spain).
# (§4) Statistical analysis: SAMR1 and SAMP8 vehicle groups were compared by t-Test. Among the SAMP8 groups, different treatments were compared by oneway-ANOVA with Dunnet and SNK post-Hoc analysis.
# male SAMP8 mice [3] = assay: Resident-intruder (RI) test in male SAMP8 mice (aggressive behavior)
# Experimental: In this study, male SAMP8 animals were treated either with vehicle (n=5), 0.32 (n=8) or 0.96 (n=8) mg/kg/day of Compound 1 for 5 weeks from month 5 of age and then subjected to the RI test. Vehicle (1.8% 2-Hydroxypropyl-β-cyclodextrin, Sigma-Aldrich, Spain) or Compound 1 were administered in drinking water. SAMR1 mice treated with vehicle were included as a control (n=6). All drugs were administered via drinking water and diluted in vehicle. Drug concentration was calculated weekly in function of body weight and corrected in function of drinking water consumption.
# The resident-intruder (RI) test was performed as follows: the test subject (resident) was maintained in its home cage without bedding changes for one week. […] The session (20 min) was video-recorded and social interaction (parameters tested: social interaction and rearings) and aggressive behavior (parameters tested: lateral threats, clinch attacks, keep-down behavior, and total attacks as the sum of all three aggressive behavior parameters measured) of the test subject were analyzed by an experimenter blind to the treatment.
# as §4
# female SAMP8 mice = assay: Three chamber test (TCT) in female SAMP8 mice; settings: 0.96 mg/kg/day in drinking water for 4 months
# From the text: In this test, after adaptation to the thee-chamber arena, a mouse is released into the middle chamber and allowed to explore the other compartments. In the adjacent ‘mouse’ compartment a docile stimulus mouse is situated in a mesh-wire container, while in the other adjacent compartment a similar container is located without stimulus mouse (object compartment). The propensity to approach or avoid the compartment with the stimulus mouse provides a measure of social interaction behavior/sociability. Wild type mice prefer social interaction and spend more time in the mouse compartment in comparison to the object compartment.
# In this study, 8-month old female SAMP8 mice were treated either with vehicle (n=9) or 0.96 mg/kg/day of Compound 1 (n=12) for 4 months and then subjected to the TCT. […] Drug concentration was calculated weekly in function of body weight and corrected in function of drinking water consumption.
# The TCT was performed in a Plexiglas transparent box with three identical consecutive chambers (15×15×20 cm) with two identical small metallic cages placed in both lateral chambers. […] This habituation time was monitored to avoid animals showing preference for one of the chambers. […] The time spent in each chamber and the time of direct exploration of the novel mice was measured during a total observation time of 10 minutes. […]
# male SAMP8 mice [4] = assay: Elevated plus maze (EPM) test in male SAMP8 mice
# Experimental: as §2, §3
# (§5) Elevated Plus Maze (EPM): The EPM consisted of four arms at right angles to each other connected to a central square and maintained elevated 50 cm above the floor. Two of the opposite arms had high walls (enclosed arms, 30×5×15 cm), whereas the other two were open arms (30×5×0 cm). The animal was placed facing a closed arm, and its movements were video-recorded for 5 min and analyzed by video-tracking using SMART® (v3.0, PanLab, SLU, Spain).
# as §4
# [5] = test system: isolated Sprague-Dawley male rats; assay: Elevated plus maze (EPM) test in the rat isolation rearing model; settings: 0.16 or 0.48 mg/kg/day in drinking water
# Experimental: as §1
# as §5, with “The elevated plus maze (EPM) test was perfomed following a similar protocol to that described for mice in Example 3 above, as follows:” for “Elevated Plus Maze (EPM):”, “46.5×12×42” for “30×5×15”, “(46.5×12×0.3” for “(30×5×0”, “(v2.5.21,” for “(v3.0,”, “Spain). […]” for “Spain).”
compound,measurement,setting,value
"Nc1nnc(CN[C@@H]2C[C@H]2c2ccc(OCc3ccccc3)cc2)o1 [Compound 1, 5-((((1R,2S)-2-(4-(benzyloxy)phenyl)cyclopropyl)amino)methyl)-1,3,4-oxadiazol-2-amine]",number of evitations,"[1]; isolated rats, 0.16 or 0.48 mg/kg/day in drinking water for 5 weeks, vs non-isolated rats, FIG. 4",restored to normality
same,time without social interaction,"[1]; isolated rats, 0.16 or 0.48 mg/kg/day in drinking water for 5 weeks, FIG. 3",dose dependently reduced
same,tolerability of doses on long-term treatment,"[1]; rats, 0.16 or 0.48 mg/kg/day in drinking water",well-tolerated
same,locomotor activity,male SAMP8 mice [2],nor did treatment with Compound 1 significantly affect locomotor activity
same,number of total attacks,"male SAMP8 mice [3]; male SAMP8 mice, 0.32 or 0.96 mg/kg/day in drinking water for 5 weeks, vs vehicle-treated SAMR1, FIG. 1",lowered the number of attacks in SAMP8 mice to SAMR1 levels
same,number of clinch attacks,"male SAMP8 mice [3]; male SAMP8 mice, 0.32 or 0.96 mg/kg/day in drinking water for 5 weeks, vs vehicle-treated SAMR1, FIG. 2",lowered the number of attacks in SAMP8 mice to SAMR1 levels
same,tolerability of doses on long-term treatment,"male SAMP8 mice [3]; mice, 0.32 or 0.96 mg/kg/day in drinking water",well-tolerated
same,preference for the socialization chamber (mice chamber) over the Object chamber,"female SAMP8 mice; vs SAMR1, FIG. 5",restored
same,time spent exploring a novel mouse,"female SAMP8 mice; vs SAMR1, FIG. 6",restored
same,anxiolytic or sedative activity,male SAMP8 mice [4]; conclusion from OF and EPM tests in SAMP8 mice,did not have anxiolytic or sedative activity
same,time in the open arms of the EPM,"male SAMP8 mice [4]; male SAMP8 mice, 0.32 or 0.96 mg/kg/day in drinking water",not significantly modified
same,effect on anxiety or locomotor activity,[5],did not produce any significant effect
